Experimental data reported in patent US11905268B2, “Anthranilic acid derivatives and their use in the treatment of human cancers” (UNIVERSITY OF CENTRAL FLORIDA RESEARCH FOUNDATION, INC., priority 2018, dated 2024).
Like-named read-outs stand apart in the source and are kept apart here.

Assays:
[1] = tested on: DFMO treated Chinese hamster ovary (CHO) cells; assay: DFMO/spermidine rescue assay in CHO cells (Assay 2); format: cell-based; settings: for EC50 / IC50: Cricetulus griseus; for EC50: Table 2; for Active in DFMO assay?: Table 3, in CHO; for DFMO/CHO IC50: Table 5B
Description: In the reconfirmation assay compounds were run in quadruplicate. […] A PTI compound is expected to block the entry or disrupt the intracellular trafficking of spermidine and inhibit the ability of spermidine to rescue the growth or viability of DFMO treated cells.
DFMO/Spermidine assay Here cells were treated with an inhibitor of polyamine biosynthesis (DFMO) and rescued back to high viability by the presence of exogenous polyamine (spermidine). Putative PTI compounds were screened for their ability to block the entry or intracellular trafficking of exogenous spermidine (or otherwise disrupt the intracellular trafficking of spermidine) by measuring cell viability in the presence of DFMO+spermidine+PTI compound. […] This was followed by adding 10 μL of […] and 5 μM spermidine (FAC 5 mM DFMO and 1 μM spermidine) in assay medium with a Beckman BioRAPTR FRD dispenser or 10 μL of 5 mM DFMO added in assay medium (positive control). […] A PTI compound is expected to block the entry or disrupt the intracellular trafficking of spermidine and inhibit the ability of spermidine to rescue the growth or viability of DFMO treated cells Cytotoxicity

CHO cells [2] = assay: Ant44 rescue assay in CHO cells (Assay 1); format: cell-based, Chinese hamster; settings: for EC50 / IC50: Cricetulus griseus; for Active in Ant44 assay?: Table 2, in CHO; for Ant44 IC50: Table 4B
Description: CHO K1 cells were grown in growth medium (RPMI+10% FBS+1×P/S+1% l-glutamine) to 70% confluency, washed in PBS and trypsinized. Cells were plated in assay medium (serum free RPMI+2% FBS+1×l-glutamine+1×P/S+[…] aminoguanidine) at 50000 cells/mL for 200 cells per well in 4 ul using a Thermo Multidrop Combi into a 1536-well white Aurora plate.
Ant44 is a cytotoxic polyamine, i.e., N^1-(9-anthracenyl)-homospermidine. A non-toxic PTI compound would block entry or intracellular trafficking of the Ant44 toxin and rescue the cells back to high viability. Therefore, this screen tested for compounds which rescued cells from Ant44 toxicity. […] This was followed by adding 10 uL of 10 uM Ant44 (FAC 2 uM) in assay medium with a Beckman BioRAPTR FRD dispenser or 10 uL of cells added in assay medium (positive control).

CHO cells [3] = assay: Cytotoxicity screen in CHO cells; settings: for CHO MTD / CHO MTD EC50 / MTD CHO: hamster; for Tox (Ant44) / tox (DFMO Assay): toxic above the stated concentration; for Tox (Ant44): listed with Ant44 assay; for tox (DFMO Assay): listed with DFMO assay; for IC50 at 48 h: Chinese hamster, CHO K1 cells
Description: CHO K1 cells were grown in growth medium to 70% confluency and washed in PBS and trypsinized. […] Cells were spun at 100×g for 1 minute and incubated at 37° C. in a humidified CO2 incubator for 24 hours. […] Cellular ATP content was then assayed by adding 3 uL of ATPLite with a Beckman BioRAPTR FRD dispenser and incubated for 10 minutes at room temperature. Plates were spun at 200×g for 1 minute and read on a Perkin Elmer Viewlux multimode plate reader using luminescence mode. This assay was used for testing dose-response of dry powders.
CHO K1 cells were grown in growth medium to 70% confluency and washed in PBS and trypsinized. Cells were plated in assay medium at 10000 cells/mL for 200 cells per well using a Thermo Multidrop Combi in 20 uL into a white Greiner plate. Cells were spun at 100×g for 1 minute and incubated at 37° C. in a humidified CO2 incubator for 24 hours. […] This was followed by adding by 10 μL of assay medium to all wells with a Beckman BioRAPTR FRD dispenser. The plates were spun at 200×g for 1 minute and incubated at 37° C. in a humidified 5% CO2 incubator for 48 hours. Cellular ATP content was then assayed by adding 20 μL of ATPLite with a Beckman BioRAPTR FRD dispenser and incubated for 10 min at room temperature. Plates were spun at 200×g for 1 minute and read on a Perkin Elmer Envision for multimode plate reader using luminescence mode. Duplicates were run for each compound concentration, and the curves represent the average of the duplicates as percent viability.
The final compound concentration was either 20 μM or 10 μg/mL (depending upon the compound source). A successful PTI in Assay 1 would block the uptake of the toxic Ant44 probe and rescue the cells back to >90% relative growth vs an untreated control. It was critical to also evaluate the toxicity of the PTI by itself as a toxic PTI would give a false negative in Assay1 (and a false positive in Assay 2). […] Assay 2 then evaluated the ability of the compound to inhibit the uptake of a rescuing dose of Spermidine (Spd, 1 μM) into DFMO-treated CHO cells.

[4] = CHO, Table 4B, read-out: DFMO/CHO IC50
[5] = CHO, Table 7, read-out: SAR IC50 DFMO assay
[6] = Table 1 HTS top hits, CHO cells, read-out: DFMO Assay IC50
[7] = CHO, Table 2, Active in Ant44 assay?, read-out: Ant44 assay EC50 in CHO
[8] = CHO, Table 7, read-out: SAR IC50 Ant44 assay
[9] = Table 1 HTS top hits, CHO cells, read-out: Ant44 EC50
[10] = Table 1 HTS top hits, CHO cells
[11] = CHO, Table 3, read-out: Ant44 rescue EC50 CHO
[12] = Table 5B, CHO cells, read-out: Ant44 IC50

Compound	IC50 [1, 5]	IC50 [1, 6]	IC50 (CHO cells [2]; [8])	Tox (Ant44) (CHO cells [3]; CHO cells)	tox (DFMO Assay) (CHO cells [3]; CHO cells)	EC50 (CHO cells [2]; [9])	IC50 at 48 h (CHO cells [3])	also measured
COc1ccc(C(=O)Nc2ccc(N3CCN(c4ccccc4)CC3)cc2C(=O)O)cc1 [SBI-0800679]	15 µM	10 to 15 µM	> 40 µM	SBI- 0800679.0001 EC40 near 20 μM, Tox >20 μM)	> 15 µM			activity in DFMO assay ([1]; CHO cells): active; EC50 ([1]; CHO): 10 µM; IC50 [1, 4]: 15 µM; EC50 (CHO cells [2]; [7]): > 10 µM; Ant44 EC40 (CHO cells [2]; Table 1, CHO cells): SBI- 0800679.0001 EC40 near 20 μM, Tox >20 μM); Active in Ant44 assay? (CHO cells [2]): Yes; Ant44 IC50 (CHO cells [2]; CHO cells): trace; general toxicity (CHO cells [3]; CHO cells): modest level of toxicity; CHO MTD (CHO cells [3]): 10 µM; CHO MTD EC50 (CHO cells [3]): (17) μM
Cc1ccc(CC(=O)Nc2ccc(N3CCN(c4ccccc4Cl)CC3)cc2C(=O)O)cc1 [SBI-0800675]	32 µM	> 25 µM	16 µM	SBI- 0800675.0001 (31 EC50) Tox >31 μM	no tox	31 µM	> 40 µM	
COc1ccc(C(=O)Nc2ccc(N3CCC(C(N)=O)CC3)cc2C(=O)O)cc1 [SBI-0800693]	> 40 µM	~10 µM	> 40 µM		SBI- 0800693.0001 (Ic50 ~10 μM, tox >10 μM)			Ant44 EC50 (CHO cells [2]; [10]): SBI- 0800693.0001 (NO EFFECT)
COc1ccccc1C(=O)Nc1ccc(N2CCN(C(=O)c3ccccn3)CC2)cc1C(=O)O [SBI-0814424, 2-(2-methoxybenzamido)-5-(4-picolinoylpiperazin-1-yl)benzoic acid]	> 40 µM		> 40 µM				> 40 µM	
COc1ccccc1C(=O)Nc1ccc(N2CCN(c3ccccn3)CC2)cc1 [SBI-0814417, 2-methoxy-N-(4-(4-(pyridin-2-yl)piperazin-1-yl)phenyl)benzamide]	> 40 µM		> 40 µM				14 µM	
COc1ccccc1C(=O)Nc1ccc(N2CCN(CCc3ccccc3)CC2)cc1C(=O)O [SBI-0814415, 2-(2-methoxybenzamido)-5-(4-phenethylpiperazin-1-yl)benzoic acid]	> 40 µM		> 40 µM				> 40 µM	
COc1ccccc1N1CCN(c2ccc(NC(=O)c3ccccc3Cl)c(C(=O)O)c2)CC1 [SBI-0800670]		10 to 15 µM	16 µM	SBI- 0800670.0001 (20 EC50) Tox >20 μM	> 15 µM	20 µM	36 µM	
COc1ccccc1N1CCN(c2ccc(N3C(=O)CCC3=O)cc2[N+](=O)[O-])CC1 [SBI-0800661]	30 µM	> 20 µM	> 40 µM				27 µM	Ant44 EC50 (CHO cells [2]; [10]): SBI- 0800661.0001 No effect
COC(=O)c1cc(N2CCN(c3cc(Cl)ccc3C)CC2)ccc1NC(=O)c1ccccc1OC [SBI-0801724, methyl 5-(4-(5-chloro-2-methylphenyl)piperazin-1-yl)-2-(2-methoxybenzamido)benzoate]	> 40 µM		> 40 µM				> 40 µM	
COc1ccccc1C(=O)Nc1ccc(N2CCN(CCCc3ccccc3)CC2)cc1C(=O)O [SBI-0814416, 2-(2-methoxybenzamido)-5-(4-(3-phenylpropyl)piperazin-1-yl)benzoic acid]	> 40 µM		> 40 µM				> 40 µM	
CCN(CC)C(=O)CN1CCN(c2ccc(NC(=O)c3ccc(OC)cc3)c(C(=O)O)c2)CC1 [SBI-0800690]	> 40 µM	~20 µM	> 40 µM		SBI- 0800690.0001 (IC50 ~20, tox >20) μM		28 µM	Ant44 EC50 (CHO cells [2]; [10]): SBI- 0800690.0001 No effect
COc1ccccc1N1CCN(c2ccc(NC(=O)c3cccs3)cc2C(=O)O)CC1 [SBI-0800666]	27 µM	20 to 32 µM	> 40 µM				> 40 µM	Ant44 EC50 (CHO cells [2]; [10]): SBI- 0800666.0001 No effect
COc1ccc(C(=O)Nc2ccc(N3CCCN(c4ncccn4)CC3)cc2C(=O)O)cc1 [SBI-0800691]	> 40 µM		12 µM	No tox	No tox	10 to 15 µM	> 40 µM	DFMO Assay IC50 [1, 10]: No effect; Active in DFMO assay? [1]: No in CHO; DFMO/CHO IC50 [1]: trace; activity in Ant44 assay (CHO cells [2]; CHO cells): robust Ant44 uptake inhibition activity; EC50 (CHO cells [2]; [11]): ~11 µM; IC50 (CHO cells [2]; [12]): 12 µM; MTD CHO (CHO cells [3]): >32 µM
COc1ccccc1C(=O)Nc1ccc(CN2CCN(c3ccccn3)CC2)cc1C(=O)O [SBI-0814423, 2-(2-Methoxybenzamido)-5-((4-(pyridin-2-yl)piperazin-1-yl)methyl)benzoic acid]	> 40 µM		> 40 µM				> 40 µM	
COc1ccccc1C(=O)Nc1ccc(N2CCN(c3ccccn3)CC2)cc1C(=O)O [SBI-0801308, 2-(2-methoxybenzamido)-5-(4-(pyridin-2-yl)piperazin-1-yl)benzoic acid]	> 40 µM	10 to 20 µM	4 µM	> 31 µM	> 20 µM	5 to 10 µM	21 µM	Active in DFMO assay? [1]: No in CHO; DFMO/CHO IC50 [1]: trace; EC50 (CHO cells [2]; [11]): 10 µM; IC50 (CHO cells [2]; [12]): 3.6 µM; CHO MTD EC50 (CHO cells [3]): (22) uM; MTD CHO (CHO cells [3]): ~10 µM
CCOc1ccccc1N1CCN(c2ccc(NC(=O)c3ccc(OC)cc3)c(C(=O)O)c2)CC1 [SBI-0800683]	20 µM	~20 µM	> 40 µM	SBI- 0800683.0001 (20 μM EC50) Tox >20 μM	SBI- 0800683.0001 (IC50 ~20 μM, tox >20 μM)	20 µM	37 µM	EC50 ([1]; CHO): ~20 µM; IC50 [1, 4]: 20 µM; EC50 (CHO cells [2]; [7]): ~20 µM; Active in Ant44 assay? (CHO cells [2]): Yes; Ant44 IC50 (CHO cells [2]; CHO cells): trace; CHO MTD (CHO cells [3]): 20 µM; CHO MTD EC50 (CHO cells [3]): (37) μM
COc1ccc(C(=O)Nc2ccc(N3CCN(c4ccc(OC)cc4)CC3)cc2C(=O)O)cc1 [SBI-0800680]	> 40 µM	> 31 µM	> 40 µM	~5 µM	no tox	31 µM	> 40 µM	
COC(=O)c1cc(CN2CCN(c3ccccn3)CC2)ccc1NC(=O)c1ccccc1OC [SBI-0814422, Methyl 2-(2-methoxybenzamido)-5-((4-(pyridin-2-yl)piperazin-1-yl)methyl)benzoate]	> 20 µM		> 20 µM				> 20 µM	
COc1ccc(C(=O)Nc2ccc(N3CCN(c4ccc(C(C)=O)cc4)CC3)cc2C(=O)O)cc1 [SBI-0800674]	21 µM	~5 µM	> 40 µM	> 5 µM	> 10 µM		20 µM	Ant44 EC50 (CHO cells [2]; [10]): no effect
